The source of these data is paper PMC8607231, “Generation of KS-133 as a Novel Bicyclic Peptide with a Potent and Selective VIPR2 Antagonist Activity that Counteracts Cognitive Decline in a Mouse Model of Psychiatric Disorders” (Frontiers in Pharmacology, 2021).

For one data set, the target named is T1, human VIPR1 (Homo sapiens, UniProt P32241).
T1 construct: host or cells: CHO-K1
T1 sequence (P32241 31-457): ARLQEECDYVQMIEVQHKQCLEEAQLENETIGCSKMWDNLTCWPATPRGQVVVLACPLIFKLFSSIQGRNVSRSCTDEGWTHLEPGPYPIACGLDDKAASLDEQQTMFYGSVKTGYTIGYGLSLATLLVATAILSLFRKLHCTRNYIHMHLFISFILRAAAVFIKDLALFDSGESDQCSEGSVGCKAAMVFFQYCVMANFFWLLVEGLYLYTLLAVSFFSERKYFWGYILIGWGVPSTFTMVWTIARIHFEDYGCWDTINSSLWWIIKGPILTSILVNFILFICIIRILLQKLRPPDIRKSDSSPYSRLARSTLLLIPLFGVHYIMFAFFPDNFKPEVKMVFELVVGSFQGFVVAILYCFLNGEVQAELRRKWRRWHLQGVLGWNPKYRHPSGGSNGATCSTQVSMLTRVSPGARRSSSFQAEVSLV
The data set is described as follows: Calcium influx assay, antagonist activity against VIP-VIPR1 signaling. In kind it is cell-based. Particulars: ligand VIP (25 nM) at EC80; CHO-K1 cells; n = 4 wells, ± S.E.M; read-out: Ca influx assay [IC50 (nM)] VIPR1. The procedure: (§1) Evaluation of antagonist activities of peptides against VIP-VIPR1, VIP-VIPR2, and PACAP-PAC1 signaling pathways and agonistic activity of KS-133 at VIPR2 was carried out by Eurofins DiscoverX (Fremont, CA, United States). Intracellular calcium mobilization was monitored using a calcium-sensitive dye loaded in CHO-K1 cells expressing human VIPR1 (ITEM 86-0030P-2243AN), VIPR2 (ITEM 86-0030P-2244AN), and PAC1 (ITEM 86-0030P-2066AN). The cells were preincubated with antagonistic peptides for 30 min at room temperature in the dark. After addition of the ligand at EC80, calcium mobilization was immediately monitored by FLIPR Tetra for 2 min. Cyclic AMP production in CHO-K1 cells expressing human VIPR2 was evaluated using HitHunter® cAMP assays (antagonist mode: ITEM 86-0007P-2362AN; agonist mode: ITEM 86-0007P-2362AG). The cells were preincubated with antagonistic peptides for 30 min at room temperature. After addition of the ligand at EC80, cells were further incubated for 30 min at room temperature. Cells were lysed and the cAMP content of the cell lysate was determined by the β-galactosidase-based enzyme fragment complementation assay ([Eglen, 2002]). IC50 values were estimated by the following equation: IC50 = 10^[Log(A/B) × (50–D)/(C–D) + Log(B)], where A is the concentration at >50% inhibition, B is the concentration at <50% inhibition, C is the inhibition rate at concertation A, and D is the inhibition rate at concertation B.
First, the antagonistic activities of parental VIpep-3, KS-132, KS-133 (monocyclic) (no bridging between Lys^7 and Asp^11), and KS-133 against human VIPR1, VIPR2, and PAC1 were evaluated by a calcium influx assay. After antagonistic peptide treatment for 30 min, ligand at a concentration of EC80 was added to the cells and then calcium signaling was measured.
FIGURE 3 Antagonistic/agonistic activities of peptides in the calcium influx and cAMP assays. For evaluation of the antagonistic activity, the cells were preincubated with antagonistic peptides for 30 min. In the calcium influx assay, after addition of ligand at EC80, calcium mobilization was monitored immediately (see details in the Methods section) (n = 4 wells for each treatment). In the cAMP assay, after a 30 min incubation with the ligand at EC80, cAMP production in cells was measured (see details in the Methods section) (n = 4 wells for each treatment).

For another data set, the target named is T2, human VIPR2 (Homo sapiens, UniProt P41587).
T2 construct: host or cells: CHO-K1
T2 sequence (P41587 24-438): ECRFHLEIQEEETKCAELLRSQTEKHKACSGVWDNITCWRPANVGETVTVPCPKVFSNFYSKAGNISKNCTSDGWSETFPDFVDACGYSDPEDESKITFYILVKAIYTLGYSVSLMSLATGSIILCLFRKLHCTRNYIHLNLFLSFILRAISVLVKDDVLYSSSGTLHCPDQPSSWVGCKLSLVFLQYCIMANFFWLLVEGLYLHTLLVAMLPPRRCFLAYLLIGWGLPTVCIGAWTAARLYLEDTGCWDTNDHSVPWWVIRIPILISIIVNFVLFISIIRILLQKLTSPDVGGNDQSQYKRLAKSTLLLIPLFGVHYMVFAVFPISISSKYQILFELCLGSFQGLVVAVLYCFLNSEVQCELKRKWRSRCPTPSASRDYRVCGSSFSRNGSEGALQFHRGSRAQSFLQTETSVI
Kind of data set: HitHunter cAMP assay, antagonist mode. In kind it is cell-based. The method, then: as §1, with “The cells were preincubated with antagonistic peptides for 30 min at room temperature. After addition of the ligand at EC80, cells were further incubated for 30 min at room temperature.” left out, “IC50 values were estimated by the following equation: IC50 = 10^[Log(A/B) × (50–D)/(C–D) + Log(B)], where A is the concentration at >50% inhibition, B is the concentration at <50% inhibition, C is the inhibition rate at concertation A, and D is the inhibition rate at concertation B.” left out
FIGURE 3 Antagonistic/agonistic activities of peptides in the calcium influx and cAMP assays. […] In the calcium influx assay, after addition of ligand at EC80, calcium mobilization was monitored immediately (see details in the Methods section) (n = 4 wells for each treatment). […]
Next, antagonistic and agonistic activities of KS-133 at VIPR2 were evaluated by a cAMP assay. […]

Data set [1] can be described thus: Plasma and brain levels after intravenous administration. In kind it is in vivo. Particulars: mouse. The source says:
Generally, drug discovery to target molecules in the CNS is harder than in peripheral tissues. Molecule exchange between the periphery and CNS is strictly restricted by the blood−brain barrier (BBB), especially molecules with a molecular weight (MW) of >400 g/mol. In addition to the MW limit, CNS drugs need to have high lipophilicity to cross the BBB ([McMartin et al., 1987]; [Dong, 2018]), but high lipophilic small molecules likely have undesirable side effects by potential off-target binding. Conversely, the MW of KS-133 was 1558 g/mol, which would avoid off-target side effects by VIPR2-selective binding but would make it difficult to cross the BBB. […] However, it was unclear whether the alterations in CREB phosphorylation were due to directly effects of s.c. injection of Ro 25-1553 and KS-133 on VIPR2 in the CNS. […] Intranasal administration is an attractive route for drug delivery to the brain because it allows direct transport of drugs from the nasal cavity to the brain parenchyma by bypassing systemic circulation ([Thorne et al., 2004]; [Lochhead and Thorne, 2012]; [Iwasaki et al., 2019]). It has been reported that about 1% of an administered molecule enters the CNS without crossing the BBB by administration to the nasal cavity, even those with a MW of 1000 g/mol ([McMartin et al., 1987]; [Dong, 2018]). There are some reports that the BBB becomes leaky in patients with psychiatric disorders such as schizophrenia and ASD ([Patel and Frey, 2015]; [Najjar et al., 2017]; [Kealy et al., 2020]). […] In the future, to clarify the mechanism and routes of how administered KS-133 targets the CNS, detailed pharmacokinetic studies of KS-133 in healthy mice and disease model mice using s.c., i.n., and intravenous administrations will be needed.

Each structure is given as a SMILES string. Where a SMILES comes first, the peptide text is derived from it. Bridges are numbered along the chain shown (N, C = ends).

As usually defined, the IC50 is the concentration that gives 50% inhibition. Regarding `CC[C@H](C)[C@H](NC(=O)[C@H](CC(C)C)NC(=O)[C@@H]1CC(=O)NCCCC[C@@H]2NC(=O)[C@@H]3CCCN3C(=O)[C@H](CC(C)C)NC(=O)[C@H](Cc3ccc(O)cc3)NC(=O)[C@@H]3CCCN3C(=O)[C@@H]3CCCN3C(=O)[C@@H](NC(C)=O)CSSC[C@H](NC(=O)[C@H](CC(C)C)NC(=O)[C@H](Cc3ccc(O)cc3)NC2=O)C(=O)N1)C(N)=O` [KS-133, Ac-c[Cys-Pro-Pro-Tyr-Leu-Pro-c(Lys-Tyr-Leu-Cys]-Asp)-Leu-Ile-NH2] (Ac-CPPYLPKYLCDLI-NH2; disulfide 1-10; lactam 7-11), the 50% inhibitory concentration (IC50) on human VIPR1 is greater than 5000 nM; at human VIPR2 (ligand VIP (0.5 nM) at EC80, CHO-K1 cells, n = 4 wells, ± S.E.M), 500 ± 79 nM. Further, the “Antagonism of VIP-VIPR2 signaling pathway” value at human VIPR2 (cAMP assay) is listed as “antagonized VIP-VIPR2 signaling pathway in a peptide concentration-dependent manner”. In data set [1] (brain, adult male ICR mice, 80 min after intravenous KS-133 1 nmol/g, n = 3, mean ± S.E.M., unpublished data), this compound showed a tissue level at time molar at 80 min of 0.035 ± 0.005 nmol/g. For the same compound, the Plasma elimination half-life result in data set [1] (in vivo) is given as “less than an hour”. This compound also displayed a level at time molar at 80 min in data set [1] (plasma, adult male ICR mice, 80 min after intravenous KS-133 1 nmol/g, n = 3, mean ± S.E.M., unpublished data) of 2780 ± 80 nM.
